Experimental data as given in PMC7481839, “Switchable foldamer ion channels with antibacterial activity” (Chemical Science, 2020).
≈ marks a conversion by molar mass, not a printed value. Where a SMILES comes first, the peptide text is derived from it.

Key:
[1] = U-tube sodium picrate transport experiment; settings: 1 mM in chloroform, 20 mM MOPS, 100 mM NaCl, pH 7.4, 25 °C, after 24 h, UV at 356 nm
Protocol: To assess if these compounds can act as cation carriers, U-tube experiments for sodium picrate transport were performed on 1, Cu(II)[1]Cl2 and Cu(II)[2]Cl2. […] Similarly, a U-tube experiment for chloride transport was performed using lucigenin.[4],[40]
5.7 Preparation of large unilamellar vesicles for CF release assays
A 50 mM 5(6)-carboxyfluorescein (CF) solution in MOPS buffer (20 mM MOPS, 100 mM NaCl, pH 7.4) was prepared by dissolving 5/6-CF in MOPS buffer, adding a sodium hydroxide (1M) solution dropwise until pH 11 was reached. The resulting solution was the slowly acidified to pH 7.4.
EYPC-cholesterol (4:1) 800 nm vesicles were prepared as described above, using the above mentioned 5(6)-carboxyfluorescein (CF) (50 mM) solution. […]
The U-tube was incubated in a water bath at 25 °C and the chloroform phase was stirred at 300 rpm during the entire experiment, ensuring efficient diffusion of any potential carrier-ion complex to the receiving phase. Aliquots (1 mL) were taken from the receiving phase and analysed for the presence of picrate by UV spectroscopy (at 356 nm). […]
Figure S11: U-tube metal picrate transport data for foldamer 1 (brown), Cu[2]Cl2 (black), Cu[1]Cl2 (green), and the control transporter, dibenzo-18-crown-6 (red). Absorbance at 356 nm. […]

[2] = Solubility; type: physicochemical
Source text: Mixing 1 or 2 with CuCl2 or CuCl provided green or blue complexes respectively. […] The blue complexes from the addition of CuCl gave very broad NMR spectra even after preparing fresh samples, which was ascribed to in situ oxidation of Cu(I); Cu(I)(TPA) complexes are very efficient one electron donors and will rapidly reduce alkyl halides[27] and oxygen.[28] Furthermore these blue products gave green solids when dried (see the ESI, Fig. S2 ^†).
Although alamethicin is a very active channel former, its use in the clinic is hampered by its high haemolytic activity.[52] […] It is known that the haemolytic activity of amphipathic peptides, including alamethicin, decreases substantially on a reduction of peptide hydrophobicity and hydrophobic moment.[56]

[3] = HPTS assay of ionophoric activity in phospholipid vesicles; type: biochemical; settings: Table S1, HPTS assay
Protocol: The membrane activity of 1, 2, Cu[1]Cl2 and Cu[2]Cl2 was assessed in phospholipid vesicle membranes using 8-hydroxypyrene-1,3,6-trisulfonate (HPTS) assays. HPTS assays can show ionophoric activity that occurs via any combination of M^+/H^+ antiport, X^–/OH^– antiport, M^+/OH^– symport and X^–/H^+ symport.
The HPTS assays of 1, 2, Cu[1]Cl2 and Cu[2]Cl2 used 1 : 4 cholesterol : egg yolk phosphatidylcholine (EYPC) vesicles in MOPS buffer (pH 7.4) with 100 mM of an appropriate salt (e.g. KCl, KBr, NaCl), following previously reported procedures.[16] The resulting normalised data were fitted to pseudo first-order rate equations as an approximation (see the ESI ^†).[32] Although the change in fluorescence after the “burst phase” is likely to arise from multiple processes, including inter-vesicle transfer of foldamers,[33] this fitting allows the relative effectiveness of each compound to be compared.
CuCl2 was added at 2 min, followed by addition of 2.2 eq. EDTA at 3 min.
5.1 Preparation of large unilamellar vesicles for HPTS assays
The HPTS assays of 1, 2, Cu[1]Cl2 and Cu[2]Cl2 used 1:4 cholesterol:egg yolk phosphatidylcholine (EYPC) vesicles in MOPS buffer (pH 7.4) with 100 mM of an appropriate salt (e.g. KCl, KBr, NaCl).5 Aliquots of 1, 2, Cu[1]Cl2 or Cu[2]Cl2 dissolved in methanol were mixed with the vesicle suspensions for 60 s before adding a base pulse to change the external pH to 8.4.6 The resulting change in HPTS fluorescence was followed for 6 min, then Triton X-100 was added at 7 min to lyse the vesicles […]. Each assay was repeated three times on new vesicles. The resulting normalized data were fitted to pseudo first-order rate equations as an approximation (see the ESI), similar to the procedure of Regen and co-workers.7 Although the change in fluorescence after the “burst phase” is likely to arise from multiple processes, including inter-vesicle transfer of foldamers,8 this fitting allows the relative effectiveness of each compound to be compared.
Egg yolk phosphatidylcholine (EYPC, 64 μmol) and cholesterol (16 μmol) were dissolved in 2 mL chloroform (spectroscopic grade). The solvent was removed under reduced pressure resulting in a thin film of lipid on the inside wall of the round bottom flask, which was dried further under vacuum for 2 hours. 1.2 mL of a trisodium 8-hydroxypyrene-1,3,6-trisulfonate (HPTS, 100 mM, pH = 7.4) dye in (3-(N-morpholino) propanesulfonic acid) buffer (20 mM MOPS, 100 mM MX (M = K or Na, X = Cl, Br or NO3− adjusted to pH 7.4 using NaOH) were added to the lipid film. Afterwards, the thin film was detached from the sides of the flask by vortex mixing. The resulting lipid suspension was then extruded 19 times through an 800 nm polycarbonate membrane in an Avestin Liposofast extruder to give a suspension of 800 nm large unilamellar vesicles. Unencapsulated HPTS dye was removed by gel permeation chromatography on PD-10 SEC columns (Sephadex G-25). Hereby 1 mL of the 800 nm vesicle suspension was diluted to 2.5 mL with 20 mM MOPS buffer solution and loaded onto the GPC column. The suspension run onto the column, followed by 3.5 mL of 20 mM MOPS buffer, which were collected, giving a stock vesicle solution of 3.5 mL (final concentration of lipids = 15.23 mM). This solution of vesicles was used directly in the HPTS experiments.
5.2 Procedure for HPTS assays
100 μL of the vesicle stock solution was diluted to 2 mL with 20 mM MOPS buffer (final lipid concentration in cuvette 0.762 mM). To this vesicle suspension was then added 20 μL of the principle compound in methanol (1 mM or 0.6 mM for Cu[2]Cl2) and the cuvette was equipped with a stirrer bar. The cuvette was […]

SMILES: CC(C)(C)OC(=O)C(C)(C)NC(=O)C(C)(C)NC(=O)C(C)(C)NC(=O)C(C)(C)NC(=O)C(C)(C)NC(=O)C(C)(C)NC(=O)C(C)(C)NC(=O)C(C)(C)n1cc(CN(Cc2ccccn2)Cc2ccccn2)nn1 [foldamer 1] (HELM PEPTIDE1{[CC(C)(C(=O)[*:2])n1cc(CN(Cc2ccccn2)Cc2ccccn2)nn1].[Aib].[Aib].[Aib].[Aib].[Aib].[Aib].[Aib].[CC(C)(C)O[*:1]]}$$$$V2.0)
- sodium picrate transport across the bulk chloroform phase [1]: No transport across the bulk phase was observed
- solubility limit [2]: 20 µM (≈ 20.4 µg/mL)
- Apparent observed rate constant kobs, KBr ([3]; 100 mM KBr, compound 10 µM): 3.3 10−3 s−1
- Apparent observed rate constant kobs, KCl ([3]; 100 mM KCl, compound 10 µM): 3 10−3 s−1
- Apparent observed rate constant kobs, KNO3 ([3]; 100 mM KNO3, compound 10 µM): 4 10−3 s−1
- Apparent observed rate constant kobs, NaCl ([3]; 100 mM NaCl, compound 10 µM, methanol control 1 × 10−3 s−1): 4 10−3 s−1
